Assay [1] concerns Pseudomonas aeruginosa. The assay is described as follows: Inhibition of IMP-1 in mexAB-deficient Pseudomonas aeruginosa KG5002/pMS363 assessed as MIC of BIPM at 50 ug/ml by microbroth dilution method. For orientation: In broth dilution the organism is exposed to a series of concentrations in liquid medium.
For assay [2], the system named is Pseudomonas aeruginosa. Kind of assay: Inhibition of IMP-1 in Pseudomonas aeruginosa PAO1/pMS363 assessed as MIC of BIPM at 50 ug/ml by microbroth dilution method.
The nature of assay [3]: Inhibition of carbapenems-resistant Pseudomonas aeruginosa PAO1/pMS363 IMP-1 using nitrocefin as substrate after 20 mins by spectrophotometric analysis.

Bounds are passed on as bounds.

By IC50 is commonly meant the concentration at which inhibition is half-maximal. The low end stands for inhibition by little substance, the high end for a need for much substance. For `O=C(O)c1c(F)ccc(N2CCC(O)CC2)c1C(=O)O`, the MIC in the assay on Pseudomonas aeruginosa [1] was found to be 1 µg/mL; in the assay on Pseudomonas aeruginosa [2], 2 µg/mL. Further, in assay [3], the IC50 came out at 17500 nM.
Turning to `Cc1ccc(N2CCC(O)CC2)c(C(=O)O)c1C(=O)O`, the MIC with Pseudomonas aeruginosa [1] is below 0.25 µg/mL; with Pseudomonas aeruginosa [2] it was 1 µg/mL. Besides, in assay [3], the half-inhibitory concentration (IC50) worked out at 700 nM.
With `CN(C)c1ccc(N2CCC(O)CC2)c(C(=O)O)c1C(=O)O`, the MIC in the assay with Pseudomonas aeruginosa [1] was below 0.25 µg/mL; with Pseudomonas aeruginosa [2], 1 µg/mL. Besides, in assay [3], the IC50 came out at 4100 nM.
As for `O=C(O)c1cccc(N2CCC(O)CC2)c1C(=O)O`, the MIC with Pseudomonas aeruginosa [1] is below 0.25 µg/mL; with Pseudomonas aeruginosa [2] it was 1 µg/mL. Moreover, the half-maximal inhibitory concentration (IC50) in assay [3] amounted to 2700 nM.
On to `O=C(O)c1c(N2CCC(O)CC2)ccc(N2CCC(O)CC2)c1C(=O)O`, for which the MIC in the assay on Pseudomonas aeruginosa [1] was below 0.25 µg/mL; in the assay on Pseudomonas aeruginosa [2], 0.5 µg/mL. Moreover, in assay [3], half-maximal inhibition (IC50) required 270 nM.

For the origin of these results see ChEMBL document CHEMBL3352464, “X-ray crystallographic analysis of IMP-1 metallo-β-lactamase complexed with a 3-aminophthalic acid derivative, structure-based drug design, and synthesis of 3,6-disubstituted phthalic acid derivative inhibitors” (Bioorg Med Chem Lett, 2014).
